Measured values reported in ChEMBL document CHEMBL5236590, “Discovery of Novel N-(5-(Pyridin-3-yl)-1H-indazol-3-yl)benzamide Derivatives as Potent Cyclin-Dependent Kinase 7 Inhibitors for the Treatment of Autosomal Dominant Polycystic Kidney Disease” (J Med Chem, 2022).

Legend:
[1] = Observed clearance in ICR mouse at 5 mg/kg, iv single dose measured upto 24 hrs; type: ADME, organism-based; conditions: in vivo
[2] = molecular target: Interleukin-1 receptor-associated kinase 4 (Homo sapiens) (UniProt Q9NWZ3); assay: Inhibition of human partial length wild type IRAK4 expressed in mammalian system at 1 uM by KINOMEscan analysis relative to control
MDCK = assay: Inhibition of cyst formation in in-vitro MDCK cyst model assessed as decrease in cyst diameter at 1 to 3 uM measured for 4 to […]; type: functional, cell-based; conditions: Canis lupus familiaris, dose 1-3 µM, time lower 4.0 hrs
[3] = molecular target: RAF proto-oncogene serine/threonine-protein kinase (Homo sapiens) (UniProt P04049); assay: Inhibition of human partial length wild type c-RAF (I330/T640) expressed in bacterial system at 1 uM by KINOMEscan analysis relative to control
[4] = molecular target: Ribosomal protein S6 kinase alpha-4 (Homo sapiens) (UniProt O75676); assay: Inhibition of human partial length wild type MSK2 expressed in bacterial system at 1 uM by KINOMEscan analysis relative to control
[5] = molecular target: Tyrosine-protein kinase JAK2 (Homo sapiens) (UniProt O60674); assay: Inhibition of human partial length wild type JAK2 (A829/G1132) expressed in mammalian system at 1 uM by KINOMEscan analysis relative to control
[6] = molecular target: Tyrosine-protein kinase receptor TYRO3 (Homo sapiens) (UniProt Q06418); assay: Inhibition of RSE (unknown origin) at 1 uM relative to control
[7] = molecular target: Tyrosine-protein kinase Fyn (Homo sapiens) (UniProt P06241); assay: Inhibition of human partial length wild type Fyn (T243/L534) expressed in bacterial system at 1 uM by KINOMEscan analysis relative to control
[8] = molecular target: Cyclin-dependent kinase 3 (Homo sapiens, UniProt Q00526); assay: Inhibition of CDK3 (unknown origin)
[9] = Half life in ICR mouse at 5 mg/kg, sc single dose measured upto 24 hrs; type: ADME, organism-based; conditions: in vivo
[10] = molecular target: MAP kinase-interacting serine/threonine-protein kinase 2 (Homo sapiens) (UniProt Q9HBH9); assay: Inhibition of human partial length wild type Mnk2 (G63/S388) expressed in mammalian system at 1 uM by KINOMEscan analysis relative to control
[11] = molecular target: Calcium/calmodulin-dependent protein kinase type 1 (Homo sapiens) (UniProt Q14012); assay: Inhibition of human partial length wild type CaMKI expressed in bacterial system at 1 uM by KINOMEscan analysis relative to control
[12] = molecular target: Cyclin-dependent kinase 9 (Homo sapiens, UniProt P50750); assay: Inhibition of CDK9 (unknown origin)
[13] = Observed MRT (infinitive) in ICR mouse at 5 mg/kg, iv single dose measured upto 24 hrs; type: ADME, organism-based; conditions: in vivo
[14] = Toxicity in wild type mouse assessed as body weight at 5 mg/kg; type: organism-based; conditions: in vivo

Chain of Ribosomal protein S6 kinase alpha-4 (Homo sapiens) (O75676 whole entry, looked up): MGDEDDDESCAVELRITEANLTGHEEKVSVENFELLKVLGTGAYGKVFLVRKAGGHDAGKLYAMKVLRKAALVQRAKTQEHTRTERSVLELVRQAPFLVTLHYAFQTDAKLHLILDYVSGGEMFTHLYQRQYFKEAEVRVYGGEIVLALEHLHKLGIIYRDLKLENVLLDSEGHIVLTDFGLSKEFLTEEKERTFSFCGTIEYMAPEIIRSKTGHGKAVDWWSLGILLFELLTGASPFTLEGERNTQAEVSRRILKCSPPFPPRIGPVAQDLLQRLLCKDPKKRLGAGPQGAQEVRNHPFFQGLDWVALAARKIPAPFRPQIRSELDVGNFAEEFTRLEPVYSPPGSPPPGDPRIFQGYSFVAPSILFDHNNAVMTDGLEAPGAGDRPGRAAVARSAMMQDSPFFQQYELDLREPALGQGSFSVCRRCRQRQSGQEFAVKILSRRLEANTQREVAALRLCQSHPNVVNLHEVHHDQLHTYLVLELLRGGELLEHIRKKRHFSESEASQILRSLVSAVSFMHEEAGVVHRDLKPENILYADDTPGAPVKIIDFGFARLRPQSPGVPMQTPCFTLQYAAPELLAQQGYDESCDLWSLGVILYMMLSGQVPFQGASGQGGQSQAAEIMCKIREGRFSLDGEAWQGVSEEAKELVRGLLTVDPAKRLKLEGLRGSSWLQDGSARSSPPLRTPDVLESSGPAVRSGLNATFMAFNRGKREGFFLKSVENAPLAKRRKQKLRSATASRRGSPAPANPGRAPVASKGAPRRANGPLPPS
Chain of Cyclin-dependent kinase 9 (P50750 whole entry): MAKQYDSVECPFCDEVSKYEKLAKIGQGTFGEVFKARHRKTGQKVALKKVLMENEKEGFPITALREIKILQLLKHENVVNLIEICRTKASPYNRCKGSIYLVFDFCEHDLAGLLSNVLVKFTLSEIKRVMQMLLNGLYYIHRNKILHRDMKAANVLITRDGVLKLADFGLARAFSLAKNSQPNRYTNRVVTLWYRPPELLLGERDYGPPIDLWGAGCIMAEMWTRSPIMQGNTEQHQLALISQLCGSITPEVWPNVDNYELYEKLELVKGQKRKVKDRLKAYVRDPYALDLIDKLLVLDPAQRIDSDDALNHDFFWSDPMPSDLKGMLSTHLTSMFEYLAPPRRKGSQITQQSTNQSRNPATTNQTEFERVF
Chain of Tyrosine-protein kinase receptor TYRO3 (Homo sapiens) (Q06418 whole entry): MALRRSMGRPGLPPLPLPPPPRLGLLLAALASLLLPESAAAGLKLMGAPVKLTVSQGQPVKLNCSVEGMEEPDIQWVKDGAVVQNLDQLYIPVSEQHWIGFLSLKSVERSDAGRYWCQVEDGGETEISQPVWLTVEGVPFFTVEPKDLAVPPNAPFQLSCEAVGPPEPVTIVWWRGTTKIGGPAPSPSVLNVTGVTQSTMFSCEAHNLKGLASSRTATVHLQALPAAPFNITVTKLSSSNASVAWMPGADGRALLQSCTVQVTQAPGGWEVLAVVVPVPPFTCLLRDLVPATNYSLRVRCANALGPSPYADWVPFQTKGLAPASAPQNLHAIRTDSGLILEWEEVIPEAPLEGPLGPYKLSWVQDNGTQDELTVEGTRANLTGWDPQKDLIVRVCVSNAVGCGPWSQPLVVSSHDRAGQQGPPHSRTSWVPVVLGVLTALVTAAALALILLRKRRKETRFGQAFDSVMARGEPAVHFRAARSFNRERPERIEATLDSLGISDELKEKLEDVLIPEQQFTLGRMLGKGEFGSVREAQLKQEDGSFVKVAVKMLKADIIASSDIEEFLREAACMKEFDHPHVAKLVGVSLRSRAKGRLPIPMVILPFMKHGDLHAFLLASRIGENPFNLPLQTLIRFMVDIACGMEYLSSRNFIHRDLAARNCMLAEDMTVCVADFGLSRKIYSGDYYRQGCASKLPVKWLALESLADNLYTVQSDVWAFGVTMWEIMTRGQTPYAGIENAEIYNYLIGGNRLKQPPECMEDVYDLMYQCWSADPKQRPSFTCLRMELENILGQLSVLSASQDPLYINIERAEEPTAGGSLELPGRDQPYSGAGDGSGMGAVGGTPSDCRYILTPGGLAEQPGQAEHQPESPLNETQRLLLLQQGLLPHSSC
Chain of Interleukin-1 receptor-associated kinase 4 (Homo sapiens) (Q9NWZ3 whole entry): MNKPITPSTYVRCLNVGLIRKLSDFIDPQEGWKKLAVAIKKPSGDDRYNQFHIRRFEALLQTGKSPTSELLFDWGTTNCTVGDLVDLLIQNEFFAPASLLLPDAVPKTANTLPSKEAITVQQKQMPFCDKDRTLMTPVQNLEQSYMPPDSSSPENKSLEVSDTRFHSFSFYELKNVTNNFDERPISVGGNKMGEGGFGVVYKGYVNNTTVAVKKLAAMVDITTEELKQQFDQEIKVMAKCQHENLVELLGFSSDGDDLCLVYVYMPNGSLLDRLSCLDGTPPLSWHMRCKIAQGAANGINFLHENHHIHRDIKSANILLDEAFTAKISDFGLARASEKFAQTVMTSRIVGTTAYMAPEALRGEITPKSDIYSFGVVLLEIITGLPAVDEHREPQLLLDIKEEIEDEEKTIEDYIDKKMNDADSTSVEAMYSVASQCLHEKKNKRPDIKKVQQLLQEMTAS
Chain of Tyrosine-protein kinase Fyn (Homo sapiens) (P06241 2-537 limits assumed): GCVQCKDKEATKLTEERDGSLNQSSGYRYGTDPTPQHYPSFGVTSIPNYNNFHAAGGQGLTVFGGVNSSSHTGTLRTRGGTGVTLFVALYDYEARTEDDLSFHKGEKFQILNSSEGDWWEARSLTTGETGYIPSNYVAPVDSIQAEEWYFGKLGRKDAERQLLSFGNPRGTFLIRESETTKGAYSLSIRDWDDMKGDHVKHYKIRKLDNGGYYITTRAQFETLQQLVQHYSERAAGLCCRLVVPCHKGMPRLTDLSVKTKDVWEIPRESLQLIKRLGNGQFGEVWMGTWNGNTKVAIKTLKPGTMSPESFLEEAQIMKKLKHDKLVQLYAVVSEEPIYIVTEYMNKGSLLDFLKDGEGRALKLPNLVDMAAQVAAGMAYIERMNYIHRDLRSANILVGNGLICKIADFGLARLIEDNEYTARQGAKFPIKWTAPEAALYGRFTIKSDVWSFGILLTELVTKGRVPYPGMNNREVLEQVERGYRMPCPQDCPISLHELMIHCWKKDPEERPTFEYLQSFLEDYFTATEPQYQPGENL
Chain of Tyrosine-protein kinase JAK2 (Homo sapiens) (O60674 whole entry): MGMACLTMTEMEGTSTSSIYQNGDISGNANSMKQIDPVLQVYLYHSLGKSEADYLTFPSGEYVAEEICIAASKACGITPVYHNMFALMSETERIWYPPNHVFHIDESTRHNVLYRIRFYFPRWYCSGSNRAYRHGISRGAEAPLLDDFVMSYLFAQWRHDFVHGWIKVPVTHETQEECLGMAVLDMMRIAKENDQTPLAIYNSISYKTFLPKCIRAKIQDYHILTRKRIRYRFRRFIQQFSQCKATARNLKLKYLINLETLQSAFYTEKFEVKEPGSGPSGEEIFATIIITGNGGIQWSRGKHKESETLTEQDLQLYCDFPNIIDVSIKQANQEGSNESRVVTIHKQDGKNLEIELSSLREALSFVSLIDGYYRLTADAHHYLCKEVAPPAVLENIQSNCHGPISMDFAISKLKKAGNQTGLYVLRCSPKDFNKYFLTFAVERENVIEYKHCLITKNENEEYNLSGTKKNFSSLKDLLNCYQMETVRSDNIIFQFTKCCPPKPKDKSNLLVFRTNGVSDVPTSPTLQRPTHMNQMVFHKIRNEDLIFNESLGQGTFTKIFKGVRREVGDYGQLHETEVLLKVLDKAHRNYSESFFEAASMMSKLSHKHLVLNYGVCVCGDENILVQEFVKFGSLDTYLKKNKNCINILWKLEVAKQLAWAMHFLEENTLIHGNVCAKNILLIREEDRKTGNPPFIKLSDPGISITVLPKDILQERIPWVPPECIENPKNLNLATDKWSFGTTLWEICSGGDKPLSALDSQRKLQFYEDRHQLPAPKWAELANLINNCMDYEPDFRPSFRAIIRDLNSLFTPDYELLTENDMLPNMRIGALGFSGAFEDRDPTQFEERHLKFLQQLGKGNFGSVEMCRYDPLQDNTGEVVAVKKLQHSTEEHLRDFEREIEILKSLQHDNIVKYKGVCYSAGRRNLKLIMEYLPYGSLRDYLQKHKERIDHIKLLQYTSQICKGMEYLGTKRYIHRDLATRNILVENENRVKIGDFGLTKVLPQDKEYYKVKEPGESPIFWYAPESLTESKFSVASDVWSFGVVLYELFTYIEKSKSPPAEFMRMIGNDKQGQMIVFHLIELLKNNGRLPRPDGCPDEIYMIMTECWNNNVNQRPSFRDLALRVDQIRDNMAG
Chain of Calcium/calmodulin-dependent protein kinase type 1 (Homo sapiens) (Q14012 whole entry, looked up): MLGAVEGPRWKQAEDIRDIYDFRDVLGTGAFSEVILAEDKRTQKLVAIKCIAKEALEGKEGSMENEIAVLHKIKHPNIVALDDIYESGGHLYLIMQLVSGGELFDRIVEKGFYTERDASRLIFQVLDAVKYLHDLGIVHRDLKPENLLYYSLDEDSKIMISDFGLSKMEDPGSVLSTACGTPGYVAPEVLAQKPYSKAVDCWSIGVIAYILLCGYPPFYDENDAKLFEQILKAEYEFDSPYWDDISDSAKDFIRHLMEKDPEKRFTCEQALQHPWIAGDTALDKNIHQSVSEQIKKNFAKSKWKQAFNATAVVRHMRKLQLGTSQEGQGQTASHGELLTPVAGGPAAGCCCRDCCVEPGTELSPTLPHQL
Chain of MAP kinase-interacting serine/threonine-protein kinase 2 (Homo sapiens) (Q9HBH9 whole entry, looked up): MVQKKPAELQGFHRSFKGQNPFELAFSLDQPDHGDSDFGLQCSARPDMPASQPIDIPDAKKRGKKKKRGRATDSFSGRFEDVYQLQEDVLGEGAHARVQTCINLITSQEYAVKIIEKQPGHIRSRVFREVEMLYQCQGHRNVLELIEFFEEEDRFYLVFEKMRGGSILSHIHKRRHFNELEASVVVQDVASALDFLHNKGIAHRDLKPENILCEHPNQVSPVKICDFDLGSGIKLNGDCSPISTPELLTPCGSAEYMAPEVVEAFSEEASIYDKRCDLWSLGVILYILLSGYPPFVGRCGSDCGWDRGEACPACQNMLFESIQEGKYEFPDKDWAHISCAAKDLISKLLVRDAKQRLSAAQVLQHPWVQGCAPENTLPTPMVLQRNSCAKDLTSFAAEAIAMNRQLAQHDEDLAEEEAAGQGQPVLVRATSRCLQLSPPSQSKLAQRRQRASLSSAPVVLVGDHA

Which clearance [1] does the source give for `C=CC(=O)Nc1ccc(C(=O)Nc2n[nH]c3ccc(-c4cncc(NC[C@@H](O)c5ccccc5)c4)cc23)cc1` here?
The clearance was 3 mL/min/kg.

What about the inhibition [2] of the same compound?
The inhibition was under 50%.

What about the inhibition (MDCK) of the same compound?
Its inhibition is “Dose-Dependent Effect”.

What about the inhibition [3] of the same compound?
Its inhibition is under 50%.

What about the inhibition [4] of the same compound?
Its inhibition is under 50%.

And the inhibition [5]?
Its inhibition is 62%.

And the inhibition [6]?
The inhibition was under 50%.

What about the inhibition [7] of the same compound?
Its inhibition is under 50%.

What about the IC50 [8] of the same compound?
The IC50 was 1840 nM.

And the half-life [9]?
The half-life was 3 h.

And the inhibition [10]?
The inhibition was under 50%.

What about the inhibition [11] of the same compound?
The inhibition was under 50%.

What about the IC50 [12] of the same compound?
Its IC50 is 526 nM.

What about the MRT inf [13] of the same compound?
The MRT inf was 10 h.

What about the Activity [14] of the same compound?
The Activity was “Non-Toxic”.
